Laboratory results reported in patent publication EP2975030B1, “DIHYDROPYRIDAZINE-3,5-DIONE DERIVATIVE” (Chugai Seiyaku Kabushiki Kaisha, priority 2013, dated 2014).

Tested on: rat small-intestinal brush border membrane vesicles
Assay: Inhibitory effect on 33PO4 uptake into rat small-intestinal brush border membrane vesicles (rapid filtration method)
Type: biochemical, Wistar female rat
Details: 1 µM test compound, 33PO4 uptake into rat small-intestinal BBMVs, 60 seconds
Description: The ^33PO4 transport activity of the small-intestinal BBMVs was determined by the rapid filtration method. […] Then, ice-cold buffer C (110 mM NaCl, 1 mM KH2PO4, and 10 mM HEPES (pH 7.5)) was added to each reaction mixture, which was immediately suction-filtered through a Millipore filter. The filter was washed with buffer C, and each sample was then dissolved in a liquid scintillator. The amount of ^33PO4 uptake into BBMVs was measured using a liquid scintillation counter. […]

Row | Compound | Rate of uptake inhibition (%) (1 µM) | Rate of uptake inhibition (%) (1 µM)
1 | 1-[(3-Fluorophenyl)methyl]-4-hydroxy-4a-methyl-N-[5-methyl-2-(trifluoromethyl)furan-3-yl]-2-oxo-5,6,7,8-tetrahydropyrido[1,2-b]pyridazine-3-carboxamide [Example 18] | 12% | 
2 | 6-[[2,3-Difluoro-4-[1-(2-methoxyethyl)azetidin-3-yl]oxyphenyl]methyl]-9-hydroxy-5-methyl-7-oxo-N-[4-(trifluoromethyl)-2-[6-(trifluoromethyl)pyrimidin-4-yl]phenyl]-5,6-diazaspiro[3.5]non-8-ene-8-carboxamide [Example 413] |  | 34%
3 | Cc1cc(NC(=O)C2=C(O)[C@@H]3CCCN3N(Cc3cccc(F)c3)C2=O)c(C(F)(F)F)o1 [Example 1, (4aS)-1-[(3-Fluorophenyl)methyl]-4-hydroxy-N-[5-methyl-2-(trifluoromethyl)furan-3-yl]-2-oxo-4a,5,6,7-tetrahydropyrrolo[1,2-b]pyridazine-3-carboxamide] | 28% | 
4 | Cc1cc(NC(=O)C2=C(O)[C@H]3CCCN3N(Cc3cccc(F)c3)C2=O)c(C(F)(F)F)o1 [Example 2, (4aR)-1-[(3-Fluorophenyl)methyl]-4-hydroxy-N-[5-methyl-2-(trifluoromethyl)furan-3-yl]-2-oxo-4a,5,6,7-tetrahydropyrrolo[1,2-b]pyridazine-3-carboxamide] | 19% | 
5 | Cc1cc(NC(=O)C2=C(O)[C@@H]3CC(C)(C)CN3N(Cc3cccc(F)c3)C2=O)c(C(F)(F)F)o1 [Example 3, (4aS)-1-[(3-Fluorophenyl)methyl]-4-hydroxy-6,6-dimethyl-N-[5-methyl-2-(trifluoromethyl)furan-3-yl]-2-oxo-5,7-dihydro-4aH-pyrrolo[1,2-b]pyridazine-3-carboxamide] | 11% | 
6 | Cc1cc(NC(=O)C2=C(O)[C@@H]3CCC(C)(C)N3N(Cc3cccc(F)c3)C2=O)c(C(F)(F)F)o1 [Example 4, (4aS)-1-[(3-Fluorophenyl)methyl]-4-hydroxy-7,7-dimethyl-N-[5-methyl-2-(trifluoromethyl)furan-3-yl]-2-oxo-5,6-dihydro-4aH-pyrrolo[1,2-b]pyridazine-3-carboxamide] | 32% | 
7 | Cc1cc(NC(=O)C2=C(O)[C@@]3(C)CCCN3N(Cc3cccc(F)c3F)C2=O)c(C(F)(F)F)o1 [Example 7] | 69% | 
8 | Cc1cc(NC(=O)C2=C(O)[C@]3(C)CCCN3N(Cc3cccc(F)c3)C2=O)c(C(F)(F)F)o1 [Example 8] | 37% | 
9 | Cc1cc(NC(=O)C2=C(O)[C@H]3CCCCN3N(Cc3cccc(F)c3)C2=O)c(C(F)(F)F)o1 [Example 15, (4aR)-1-[(3-Fluorophenyl)methyl]-4-hydroxy-N-[5-methyl-2-(tritluoromethyl)furan-3-yl]-2-oxo-5,6,7,8-tetrahydro-4aH-pyrido[1,2-b]pyridazine-3-carboxamide] | 42% | 
10 | Cc1cc(NC(=O)C2=C(O)[C@@H]3CCCCN3N(Cc3cccc(F)c3)C2=O)c(C(F)(F)F)o1 [Example 16] | 38% | 
11 | Cc1cc(NC(=O)C2=C(O)[C@@H]3CCCCN3N(Cc3c(F)c(F)cc4cc[nH]c34)C2=O)c(C(F)(F)F)o1 [Example 17, (4aS)-1-[(5,6-Difluoro-1H-indol-7-yl)methyl]-4-hvdroxy-N-[5-methyl-2-(trifluoromethyl)furan-3-yl]-2-oxo-5,6,7,8-tetrahydro-4aH-pyrido[1,2-b]pyridazine-3-carboxamide] | 33% | 
12 | CCC12CCCCN1N(Cc1cccc(F)c1F)C(=O)C(C(=O)Nc1cc(C)oc1C(F)(F)F)=C2O (stereo not shown) [Example 19, 1-[2,3-(Difluorophenyl)methyl]-4a-ethyl-4-hydroxy-N-[5-methyl-2-(trifluoromethyl)furan-3-yl]-2-oxo-5,6,7,8-tetrahydropyrido[1,2-b]pyridazine-3-carboxamide] | 41% | 
13 | C[C@]12CCCN1N(Cc1cccc(F)c1F)C(=O)C(C(=O)Nc1ccc(C(F)(F)F)cc1-c1cc(C(F)(F)F)ncn1)=C2O [Example 21, (4aR)-1-[(2,3-Difluorophenyl)methyl]-4-hydroxy-4a-methyl-2-oxo-N-[4-(trifluoromethyl)-2-[6-(trifluoromethyl)pyrimidin-4-yl]phenyl]-6,7-dihydro-5H-pyrrolo[1,2-b]pyridazine-3-carboxamide] | 61% | 
14 | C[C@]12CCCN1N(Cc1cccc(F)c1F)C(=O)C(C(=O)Nc1ccc(C(F)(F)F)cc1-c1ncnc(C#N)c1Cl)=C2O [Example 23] | 84% | 
15 | Cc1c(C#N)ncnc1-c1cc(C(F)(F)F)ccc1NC(=O)C1=C(O)[C@@]2(C)CCCN2N(Cc2cccc(F)c2F)C1=O [Example 24] | 76% | 
16 | COc1c(C#N)ncnc1-c1cc(C(F)(F)F)ccc1NC(=O)C1=C(O)[C@@]2(C)CCCN2N(Cc2cccc(F)c2F)C1=O [Example 25] | 82% | 
17 | CCCCCN1C(=O)C(C(=O)Nc2ccc(C(F)(F)F)cc2-c2ccc(C(F)(F)F)nc2)=C(O)[C@@]2(C)CCCN12 [Example 26] | 72% | 
18 | C[C@]12CCCN1N(Cc1cccc([N+](=O)[O-])c1)C(=O)C(C(=O)Nc1ccc(Br)c(F)c1)=C2O [Example 27] | 76% | 
19 | C[C@]12CCCN1N(Cc1cccc(F)c1F)C(=O)C(C(=O)Nc1ccc(Br)c(F)c1)=C2O [Example 28] | 72% | 
20 | C[C@]12CCCN1N(Cc1cccc(F)c1F)C(=O)C(C(=O)Nc1cc(F)c(Br)c(F)c1)=C2O [Example 29] | 75% | 
21 | CC1(C)CC[C@]2(C)C(O)=C(C(=O)Nc3cc(C(F)(F)F)ccc3-c3ccc(C(F)(F)F)nc3)C(=O)N(Cc3cccc(F)c3F)N12 [Example 63] | 72% | 
22 | C[C@]12CCCN1N(Cc1cccc(F)c1F)C(=O)C(C(=O)Nc1ccc(Br)cc1-c1cc(C(F)(F)F)ncn1)=C2O [Example 64] | 77% | 

Row | Compound | Rate of uptake inhibition (%) (1 µM) | Rate of uptake inhibition (%) (1 µM)
23 | COC(=O)c1cccc(-c2cc(C(F)(F)F)ccc2NC(=O)C2=C(O)[C@@]3(C)CCCN3N(Cc3cccc(F)c3F)C2=O)c1OC [Example 65] | 98% | 
24 | CCOc1cccc(-c2cc(C(F)(F)F)ccc2NC(=O)C2=C(O)[C@@]3(C)CCCN3N(Cc3cccc(F)c3F)C2=O)c1OC [Example 66] | 96% | 
25 | C[C@]12CCCN1N(Cc1cccc(F)c1F)C(=O)C(C(=O)Nc1ccc(C(F)(F)F)cc1-c1cnc(Cl)nc1)=C2O [Example 67] | 91% | 
26 | C[C@]12CCCN1N(Cc1cccc(F)c1F)C(=O)C(C(=O)Nc1ccc(C(F)(F)F)cc1-c1cnc(Cl)c(C#N)c1)=C2O [Example 68, (4aR)-N-[2-(6-Chloro-5-cyanopyridin-3-yl)-4-(trifluoromethyl)phenyl]-1-[(2,3-difluorophenyl)methyl]-4-hydroxy-4a-methyl-2-oxo-6,7-dihydro-5H-pyrrolo[1,2-b]pyridazine-3-carboxamide] | 84% | 
27 | Cc1c(Cl)ncnc1-c1cc(C(F)(F)F)ccc1NC(=O)C1=C(O)[C@@]2(C)CCCN2N(Cc2cccc(F)c2F)C1=O [Example 69] | 74% | 
28 | C[C@]12CCCN1N(Cc1cccc(F)c1F)C(=O)C(C(=O)Nc1ccc(C(F)(F)F)cc1-c1ncnc(Cl)c1Cl)=C2O [Example 70] | 79% | 
29 | CN(C)S(=O)(=O)c1ccc(-c2cc(C(F)(F)F)ccc2NC(=O)C2=C(O)[C@@]3(C)CCCN3N(Cc3cccc(F)c3F)C2=O)s1 [Example 71] | 97% | 
30 | COc1ncc(-c2cc(C(F)(F)F)ccc2NC(=O)C2=C(O)[C@@]3(C)CCCN3N(Cc3cccc(F)c3F)C2=O)c(OC)n1 [Example 72] | 92% | 
31 | C[C@]12CCCN1N(Cc1cccc(F)c1F)C(=O)C(C(=O)Nc1ccc(C(F)(F)F)cc1-c1cnc(Br)cn1)=C2O [Example 73] | 74% | 
32 | C[C@]12CCCN1N(Cc1cccc(F)c1F)C(=O)C(C(=O)Nc1ccc(C(F)(F)F)cc1-c1cnc(Cl)cn1)=C2O [Example 74] | 82% | 
33 | C[C@]12CCCN1N(Cc1cccc(F)c1F)C(=O)C(C(=O)Nc1ccc(Br)cc1F)=C2O [Example 75] | 74% | 
34 | C[C@]12CCCN1N(Cc1cccc(F)c1F)C(=O)C(C(=O)Nc1ccc(Cl)cc1F)=C2O [Example 76] | 77% | 
35 | C[C@]12CCCN1N(Cc1cccc(F)c1F)C(=O)C(C(=O)Nc1ccc(Br)cc1)=C2O [Example 77] | 80% | 
36 | C[C@]12CCCN1N(Cc1cccc(F)c1F)C(=O)C(C(=O)Nc1ccc(Br)cn1)=C2O [Example 78] | 71% | 
37 | C[C@]12CCCN1N(Cc1cccc(F)c1F)C(=O)C(C(=O)Nc1ccc(Cl)cn1)=C2O [Example 79] | 71% | 
38 | COc1cc(C)c(-c2cc(C(F)(F)F)ccc2NC(=O)C2=C(O)[C@@]3(C)CCCN3N(Cc3cccc(F)c3F)C2=O)cn1 [Example 80] | 75% | 
39 | COc1cncc(-c2cc(C(F)(F)F)ccc2NC(=O)C2=C(O)[C@@]3(C)CCCN3N(Cc3cccc(F)c3F)C2=O)c1 [Example 81] | 74% | 
40 | C[C@]12CCCN1N(Cc1cccc(F)c1F)C(=O)C(C(=O)Nc1ccc(C(F)(F)F)cc1-c1cncc(C#N)c1)=C2O [Example 82] | 100% | 
41 | C[C@]12CCCN1N(Cc1cccc(F)c1F)C(=O)C(C(=O)Nc1ccc(C(F)(F)F)cc1-c1cnc3ccccc3c1)=C2O [Example 83] | 90% | 
42 | C[C@]12CCCN1N(Cc1cccc(F)c1F)C(=O)C(C(=O)Nc1ccc(C(F)(F)F)cc1-c1cc(Cl)cnc1Cl)=C2O [Example 84] | 91% | 
43 | C[C@]12CCCN1N(Cc1cccc(F)c1F)C(=O)C(C(=O)Nc1ccc(C(F)(F)F)cc1-c1ccc(C(F)(F)F)nc1Br)=C2O [Example 85] | 71% | 
